Test results as given in BigSolDB 2.1.

O=[N+]([O-])c1cc([N+](=O)[O-])c(O)c(Cl)c1O
Settings | solubility (mole fraction)
in acetic acid, 299.35 K | 0.00649
in acetic acid, 305.55 K | 0.00872
in acetic acid, 311.45 K | 0.0112
in acetic acid, 315.05 K | 0.013
in acetic acid, 318.75 K | 0.0149
in acetic acid, 321.85 K | 0.0167
in acetic acid, 323.95 K | 0.0179
in acetic acid, 327.65 K | 0.0202
in acetic acid, 334.65 K | 0.0248
in acetic acid, 336.45 K | 0.026
in acetic acid, 340.45 K | 0.0289
in acetic acid, 343.15 K | 0.0308
in ethanol, 299.35 K | 0.00297
in ethanol, 303.15 K | 0.00355
in ethanol, 307.35 K | 0.00428
in ethanol, 310.75 K | 0.00493
in ethanol, 314.25 K | 0.00568
in ethanol, 317.65 K | 0.00648
in ethanol, 320.15 K | 0.00711
in ethanol, 326.35 K | 0.00882
in ethanol, 329.85 K | 0.00989
in ethanol, 332.65 K | 0.0108
in ethanol, 335.45 K | 0.0118
in ethanol, 339.15 K | 0.0131
in ethanol, 343.75 K | 0.0148
in ethyl acetate, 298.75 K | 0.0449
in ethyl acetate, 302.65 K | 0.0474
in ethyl acetate, 306.25 K | 0.0498
in ethyl acetate, 309.95 K | 0.0525
in ethyl acetate, 313.85 K | 0.0555
in ethyl acetate, 318.15 K | 0.0589
in ethyl acetate, 323.15 K | 0.0633
in ethyl acetate, 327.25 K | 0.067
in ethyl acetate, 331.85 K | 0.0716
in ethyl acetate, 333.35 K | 0.0731
in ethyl acetate, 337.15 K | 0.0772
in ethyl acetate, 342.55 K | 0.0834
in ethyl acetate, 344.95 K | 0.0863
in methanol, 299.75 K | 0.00172
in methanol, 305.95 K | 0.00239
in methanol, 308.75 K | 0.00277
in methanol, 311.25 K | 0.00316
in methanol, 313.65 K | 0.00359
in methanol, 315.95 K | 0.00406
in methanol, 318.15 K | 0.00456
in methanol, 320.75 K | 0.00524
in methanol, 323.35 K | 0.006
in methanol, 327.05 K | 0.00731
in methanol, 330.15 K | 0.0086
in water, 298.85 K | 3.49e-05
in water, 301.15 K | 3.65e-05
in water, 303.65 K | 4.23e-05
in water, 306.35 K | 4.59e-05
in water, 309.05 K | 4.86e-05
in water, 311.35 K | 5.44e-05
in water, 313.35 K | 5.67e-05
in water, 315.75 K | 6.29e-05
in water, 318.15 K | 6.8e-05
in water, 320.65 K | 7.62e-05
in water, 323.15 K | 8.17e-05
in water, 325.85 K | 9.12e-05
in water, 327.45 K | 9.79e-05
in water, 330.15 K | 0.000106
in water, 332.25 K | 0.000113
in water, 336.35 K | 0.00013
in water, 339.55 K | 0.000142
in water, 341.95 K | 0.000152
